In patent US20090197930A1, “Eyedrops” (priority 2006, published 2009):

Conditions: administered at high concentration

miosis: strong miosis
myopic inclination: myopic inclination is stronger
pupillary reaction: pupillary reaction becomes dull
Structure (SMILES): O=C1CN(/N=C/c2ccc(-c3ccc([N+](=O)[O-])cc3)o2)C(=O)[N-]1.[Na+] [dantrolene, Dantrolene sodium]
